The COVID Moonshot data (paper PMC7615835)
pIC50: −log10 of the molar value. “And” between values parts separate entries of the source, which are not always exact repeats. Identical values can stand only once.

These molecules were tested against SARS-CoV-2 Main Protease (SARS-CoV-2) (UniProt P0DTD1).

`CC(C)(C)c1cc(Nc2cc(Cl)cc(CC(=O)Nc3cncc4ccccc34)c2)n(-c2ccccc2)n1` and `O=C(Cc1cc(Cl)cc(Nc2ccc(-c3ccccc3)cc2)c1)Nc1cncc2ccccc12` are the same in pIC50: 5.69 for the first, 5.69 for the second.

`O=C(NCCc1cccc(F)c1)C(c1cccnc1)N(C(=O)c1cnc[nH]1)C1CCCCCC1` (stereo not given) and `O=C(NCCc1cccc(F)c1)C(c1cccnc1)N(C(=O)c1cocn1)C1CCCCC1` (stereo not given) cannot be ordered by pIC50: less than 4.00 for the first, less than 4.00 for the second.

`Cc1ccncc1NC(=O)Cc1cc(Cl)cc(NC2CC2C(F)(F)F)c1` (stereo not given) and `Cc1ccncc1NC(=O)Cc1cc(Cl)cc(NC2CCCC2O)c1` (stereo not given) are within 0.2 log units of each other in pIC50: 4.60 for the first, 4.71 for the second.

`CC(C)(O)c1cccc(N(C(=O)c2cocn2)C(C(=O)NCCc2cccc(F)c2)c2cccnc2)c1` (stereo not given) and `CCOc1ccc(N(C(=O)c2cocn2)C(C(=O)NCCc2cccc(F)c2)c2cccnc2)cn1` (stereo not given) cannot be ordered by pIC50: less than 4.00 for the first, less than 4.00 for the second.

Going from `O=C(NCCc1cccc(F)c1)C(c1cccnc1)N(C(=O)c1cnc[nH]1)c1ccc(Cn2cccn2)cc1` (stereo not given) to `COc1ccc(N(C(=O)c2cnc[nH]2)C(C(=O)NCCc2cccc(F)c2)c2cccnc2)cc1` (stereo not given), the pIC50 falls from 4.45 to 4.03 (0.42 log units). The first is the more potent here.

`Cc1cc(F)cc(Br)c1Nc1cc(Cl)cc(CC(=O)Nc2cncc3ccccc23)c1` and `Cc1cc(Br)c(Cl)cc1Nc1cc(Cl)cc(CC(=O)Nc2cncc3ccccc23)c1` are within 0.2 log units of each other in pIC50: 5.70 for the first, 5.69 for the second.

`O=C(CC1(C(=O)Nc2cncc3ccccc23)CCOc2ccc(Cl)cc21)N1CCC2C1CCCN2CCO` (stereo not given) and `Cn1cncc1CN(C(=O)CC1(C(=O)Nc2cncc3ccccc23)CCOc2ccc(Cl)cc21)C1CC1` (stereo not given) are within 0.2 log units of each other in pIC50: 5.33 for the first, 5.21 for the second.

Compared with `CCCCc1nc(-c2nccn2CC(F)(F)F)c[nH]1`, `Cc1cc(C(F)(F)F)nc2n[nH]c(NC(=O)Cc3cccc(Cl)c3)c12` is lower in pIC50: 4.64 for the first, less than 4.00 for the second. The first is the more potent here.

First: Cc1ccncc1NC(=O)C(C)c1cc(Cl)cc(OC2CC(=O)N2)c1 (stereo not given)
Second: Cc1ccncc1NC(=O)Cc1cc(Cl)cc(NS(C)(=O)=O)c1
The pIC50 of the first is 0.55 log units lower: 4.11 for the first, 4.66 for the second.

`O=C(Cc1cc(Cl)cc(Nc2nc(-c3ccc(Cl)c(Cl)c3)cs2)c1)Nc1cncc2ccccc12` and `O=C(Cc1cc(Cl)cc(Nc2ccc(Cl)c(Cl)c2F)c1)Nc1cncc2ccccc12` are within 0.2 log units of each other in pIC50: 5.61 for the first, 5.65 for the second.

First: O=C(c1cc(=O)[nH]c2ccccc12)N1CCN(c2ccccc2F)CC1
Second: COc1cccc(N2CCN(C(=O)c3cc(=O)[nH]c4ccccc34)CC2)c1
The pIC50 of the first is 0.50 log units lower: 4.62 for the first, 5.12 for the second.

`CN(C(=O)c1ccco1)C(C(=O)NCCc1cccc(F)c1)c1cccnc1` (stereo not given) and `O=C(NCCc1cccc(F)c1)C(c1cccnc1)N(Cc1ccccc1)C(=O)c1ccco1` (stereo not given) cannot be ordered by pIC50: less than 4.00 for the first, less than 4.00 for the second.

Compared with `O=C(NCCc1cccc(F)c1)C(c1cccnc1)N(C(=O)c1cnc[nH]1)c1ccc(OC2CCOC2)cc1` (stereo not given), `O=C(NCCc1cccc(F)c1)C(c1cccnc1)N(C(=O)c1cnc[nH]1)c1ccc2ncsc2c1` (stereo not given) is lower in pIC50: 4.59 for the first, less than 4.00 for the second.

`O=C1CC(c2ccc(N(C(=O)c3cocn3)C(C(=O)NCCc3cccc(F)c3)c3cccnc3)cc2)CC(=O)N1` (stereo not given) and `CC(C)S(=O)(=O)c1ccc(N(C(=O)c2cocn2)C(C(=O)NCCc2cccc(F)c2)c2cccnc2)cc1` (stereo not given) are within 0.2 log units of each other in pIC50: 4.27 for the first, 4.18 for the second.

First: CC1(CS(=O)(=O)N2Cc3ccc(Cl)cc3[C@@H](C(=O)Nc3cncc4ccccc34)C2)CC1 (stereo in doubt)
Second: CC1(C(=O)Nc2cncc3ccccc23)CN(S(=O)(=O)CC2(C#N)CC2)Cc2ccc(Cl)cc21 (stereo not given)
The pIC50 of the first is 1.68 log units lower: 5.34 for the first, 7.02 for the second. The second is the more potent here.

`CCOC(=O)CNC(=O)C(c1cccnc1)N(C(=O)c1cocn1)c1ccc(C(C)(C)C)cc1` (stereo not given) and `CC(C)(C)c1ccc(N(C(=O)c2cocn2)C(C(=O)NCCc2cnc[nH]2)c2cccnc2)cc1` (stereo not given) are within 0.2 log units of each other in pIC50: 5.02 for the first, 4.84 for the second.

`CCCOc1c(Cl)cc(C(=O)N2CCC(C3CCNC3)CC2)cc1OCC` (stereo not given) and `O=C(c1ccc2nc(C(F)F)[nH]c2c1)N1CCC(C2CCNC2)CC1` (stereo not given) cannot be ordered by pIC50: less than 4.00 for the first, less than 4.00 for the second.

First: O=C(NCC1CCCCC1)[C@@H]1CN(C(=O)CCl)CCN1S(=O)(=O)c1ccsc1 (stereo in doubt)
Second: O=C(NCc1ccccc1)[C@H]1CN(C(=O)CCl)CCN1S(=O)(=O)c1ccsc1 (stereo in doubt)
The pIC50 of the first is 0.25 log units lower: 5.96 for the first, 6.21 for the second.

First: CC(NC(=O)CCl)c1cc(Cl)cc(-c2ccc(S(N)(=O)=O)cc2)c1 (stereo not given)
Second: O=C(Cc1cccc(Cl)c1)Nc1cncc2cc(C(F)F)ccc12
The pIC50 of the first is 0.68 log units higher: 6.33 for the first, 5.65 for the second.

First: O=S(=O)(Nc1ccccc1SCc1cccc(Cl)c1F)c1cc(Cl)sc1Cl
Second: COc1ncc(NC(=O)Cc2cccc(Cl)c2)c2ccccc12
The pIC50 of the first is higher: 5.65 for the first, less than 4.00 for the second.

Compared with `COC1(CS(=O)(=O)N2Cc3ccc(Cl)cc3C3(CCN(c4cncc5ccc(OCCN(C)C)cc45)C3=O)C2)CC1` (stereo not given), `N#CC1(CS(=O)(=O)N2Cc3ccc(Cl)cc3C3(CCN(c4cncc5ccccc45)C3=O)C2)CCOCC1` (stereo not given) is 0.27 log units lower in pIC50: 6.74 for the first, 6.47 for the second.

First: C=CC(=O)N(c1ccc(C(C)(C)C)cc1)C(C(=O)NC(C)(C)C)c1cncc(Cl)c1 (stereo not given)
Second: Cc1cnoc1C(=O)N(c1ccc(C(C)(C)C)cc1)C(C(=O)NCCc1cccc(F)c1)c1cccnc1 (stereo not given)
The pIC50 of the first is higher: 4.18 for the first, less than 4.00 for the second.

First: O=C(Cc1cc(Cl)cc(NC2CCN(Cc3ccccc3)CC2)c1)Nc1cncc2ccccc12
Second: O=C(Cc1cc(Cl)cc(Nc2ccccc2Cc2ccccc2)c1)Nc1cncc2ccccc12
The pIC50 of the first is 0.48 log units lower: 5.23 for the first, 5.71 for the second. The second is the more potent here.

First: O=C(Cc1cccc(Cl)c1)Nc1n[nH]c2ccnc(Br)c12
Second: O=C(Cc1cccc(Cl)c1)Nc1cncc2[nH]ncc12
The pIC50 of the first is lower: less than 4.00 for the first, 4.66 for the second.

Compared with `Cc1ccncc1C(C(=O)NCCc1cccc(F)c1)N(C(=O)c1ccco1)c1ccc(C(C)(C)C)cc1` (stereo not given), `CC(C)(C)c1ccc(N(C(=O)c2scnc2Cl)C(C(=O)NCCc2cccc(F)c2)c2cccnc2)cc1` (stereo not given) is lower in pIC50: 6.95 for the first, less than 4.00 for the second.

`COCc1ccccc1CNS(=O)(=O)c1c(C)sc(C)c1C` and `Cn1ccn2c(CNc3nc4ccccc4s3)nnc2c1=O` cannot be ordered by pIC50: less than 4.00 for the first, less than 4.00 for the second.

Going from `CC(C)(C)c1ccc(N(C(=O)c2cc(=O)n3ncnc3[nH]2)C(C(=O)NCCc2cccc(F)c2)c2cccnc2)cc1` (stereo not given) to `CC(C)(C)c1ccc(N(C(=O)c2c[nH]c(=O)[nH]2)C(C(=O)NCCc2cccc(F)c2)c2cccnc2)cc1` (stereo not given), the pIC50 rises from less than 4.00 to 4.80.

`CC(NC(=O)c1c(Cl)nc2ccccn12)c1nnc2ccccn12` (stereo not given) and `O=C(NC1N=Nc2ccccc21)C1CCOc2ccc(Cl)cc21` (stereo not given) cannot be ordered by pIC50: less than 4.00 for the first, less than 4.00 for the second.

`Cc1ccncc1NC(=O)Cc1cc(Cl)cc(OCc2n[nH]c3ccccc23)c1` and `Cc1ccncc1NC(=O)Cc1cc(Cl)cc(OCc2ncc[nH]2)c1` cannot be ordered by pIC50: less than 4.00 for the first, less than 4.00 for the second.

`Cc1cc(O)c(C(C(=O)NCCc2cccc(F)c2)N(C(=O)c2cocn2)c2ccc(C(C)(C)C)cc2)c(=O)[nH]1` (stereo not given) and `COCCn1nc(C(=O)N(c2ccc(C(C)(C)C)cc2)C(C(=O)NCCc2cccc(F)c2)c2cccnc2)ccc1=O` (stereo not given) cannot be ordered by pIC50: less than 4.00 for the first, less than 4.00 for the second.

Compared with `Cc1nnc(C2CCN(C(=O)c3ccc(Br)cc3)CC2)[nH]1`, `COc1cccc2[nH]c(=O)cc(C(=O)N3CCN(c4cccc(Cl)c4)CC3)c12` is higher in pIC50: less than 4.00 for the first, 5.33 for the second. The second is the more potent here.

Going from `CN(C(=O)Cn1nnc2ccccc21)c1ccc(Oc2ccc(C(F)(F)F)cn2)cc1` to `O=C(Cc1cccc(C(F)(F)F)c1)Nc1cncc2ccccc12`, the pIC50 rises from 4.42 to 5.16 (0.74 log units).

Going from `CCOc1ccc(CNc2cc(Cl)cc(CC(=O)Nc3cncc4ccccc34)c2)cc1` to `Cc1ncc(CO)c(CNc2cc(Cl)cc(CC(=O)Nc3cncc4ccccc34)c2)c1O`, the pIC50 falls from 5.47 to 5.04 (0.43 log units).

First: O=C1CC(NC(=O)C2CCOc3ccc(Cl)cc32)CN1 (stereo not given)
Second: O=C(CN1CC(C(=O)Nc2cncc3cc(F)ccc23)c2cc(Cl)ccc2C1=O)NC1COC1 (stereo not given)
The pIC50 of the first is lower: less than 4.00 for the first, 6.00 for the second.

First: CC(C)Oc1ccc(N(C(=O)c2cocn2)C(C(=O)NCCc2cccc(F)c2)c2cccnc2)cc1 (stereo not given)
Second: Cc1nnn(-c2ccc(N(C(=O)c3cocn3)C(C(=O)NCCc3cccc(F)c3)c3cccnc3)cc2)n1 (stereo not given)
The pIC50 of the first is 1.74 log units higher: 6.22 for the first, 4.48 for the second. The first is the more potent here.

Going from `CCOC(=O)[C@H]1CCCN(c2cc(Cl)cc(CC(=O)Nc3cncc4ccccc34)c2)C1` (stereo in doubt) to `O=C(Cc1cc(Cl)cc(Cc2ccn[nH]2)c1)Nc1cncc2ccccc12`, the pIC50 falls from 5.61 to 5.30 (0.31 log units).

Compared with `O=C(Cc1cccc(Cl)c1)Nc1cnc2n1CCCC2`, `CS(=O)(=O)N1CCc2ccc(Cl)cc2C1C(=O)Nc1cncc2ccccc12` (stereo not given) is 1.77 log units higher in pIC50: 4.03 for the first, 5.80 for the second. The second is the more potent here.

Compared with `O=C(NCCc1cccc(F)c1)C(c1cccnc1)N(C(=O)c1cocn1)c1ccc2c(c1)CCCS2(=O)=O` (stereo not given), `O=C(NCCc1cccc(F)c1)C(c1cccnc1)N(C(=O)c1cocn1)c1ccc(N2CCCS2(=O)=O)cc1` (stereo not given) is higher in pIC50: less than 4.00 for the first, 4.56 for the second.

`Cc1sc2ncnc(N3CCc4c(ncn4C4CC4)C3)c2c1C` and `Cc1nc2sccn2c1CN(C)C(=O)c1cnc2sccn2c1=O` cannot be ordered by pIC50: less than 4.00 for the first, less than 4.00 for the second.

First: O=C(CCl)N1CCN(Cc2cc(O)cc(Cl)c2)CC1
Second: O=C(CCl)N1CCN(Cc2cc(Cl)cc(Cl)c2)CC1
The pIC50 of the first is 0.83 log units lower: 4.89 for the first, 5.72 for the second.

First: O=C(NCCc1cccc(F)c1)C(c1cccnc1)N(C(=O)c1ccco1)c1ccc(-c2n[nH]c3c2COCC3)cc1 (stereo not given)
Second: CC(C)c1cc(N(C(=O)c2ccco2)C(C(=O)NCCc2cccc(F)c2)c2cccnc2)ccc1C(F)(F)F (stereo not given)
The pIC50 of the first is higher: 4.37 for the first, less than 4.00 for the second. The first is the more potent here.

Going from `N#CC1CN(S(=O)(=O)N2Cc3ccc(Cl)cc3C3(CCN(c4cncc5ccccc45)C3=O)C2)C1` (stereo not given) to `CNC(=O)CN1CC(C)(C(=O)Nc2cncc3cccc(Cl)c23)c2cc(Cl)ccc2S1(=O)=O` (stereo not given), the pIC50 falls from 6.74 to 5.94 (0.80 log units).

Going from `O=C(NNc1nc2ccccc2[nH]1)c1cc(O)nc2ccccc12` to `Cc1ccc(N(Cc2cscn2)C(=O)Cc2cncc3ccccc23)cc1`, the pIC50 rises from 4.59 to 5.09 (0.50 log units). The second is the more potent here.

`O=C(Cc1cc(Cl)cc(Nc2ccc(OCc3ccccn3)c(Cl)c2)c1)Nc1cncc2ccccc12` and `O=C(Cc1cc(Cl)cc(Nc2ncccc2C(F)(F)F)c1)Nc1cncc2ccccc12` are within 0.2 log units of each other in pIC50: 5.68 for the first, 5.71 for the second.

Compared with `O=C(CCl)N1CCN(S(=O)(=O)c2ccsc2)[C@H](C(=O)N2CCN(c3ccccc3)CC2)C1` (stereo in doubt), `Cc1ccc(NC2=C(c3ccccc3)C(=O)N(Cc3cccnc3)C2=O)cc1C` is lower in pIC50: 5.70 for the first, less than 4.00 for the second. The first is the more potent here.

Going from `CCCCn1nnnc1CNC1CCc2nc(C(C)C)nn2C1` (stereo not given) to `O=C(NCCc1cccc(F)c1)C(c1cccnc1)N(C(=O)c1cnc[nH]1)c1ccc2c(c1)CCC(=O)N2CC(F)F` (stereo not given), the pIC50 rises from less than 4.00 to 4.32. The second is the more potent here.

With `O=C(Nc1cncc2ccccc12)[C@@H]1COc2ccc(Cl)cc21` (stereo in doubt) the pIC50 was 6.28 and 6.17 and 6.32.
With `CC(NC(=O)Cc1ccc(-n2cnnn2)cc1)(C(=O)Nc1cncc2ccccc12)c1ccc(Cl)c(Cl)c1` (stereo not given) the pIC50 was 5.47 and 5.20.
In the case of `CCCCCC(=O)SCCNC(=O)CCNC(=O)[C@H](O)C(C)(C)COP(=O)(O)OP(=O)(O)OC[C@H]1O[C@@H](n2cnc3c(N)ncnc32)[C@H](O)[C@@H]1OP(=O)(O)O` (stereo in doubt), the pIC50 was 4.34 and 4.07.
